Earlier results, collected in PMC7395068, “The evolution of strategies to minimise the risk of human drug-induced liver injury (DILI) in drug discovery and development” (Archives of Toxicology, 2020).
*1 amine or outer side, *2 acyl side, *3 side chain or, on linkers, in order; H or OH if unused. Where a SMILES comes first, the peptide text is derived from it. Bridges are numbered along the chain shown (N, C = ends). Roman numbers before positions name the chains, in order. [ ]: non-standard residue; d: D form. Actinocin(9to1) = Cc1c2oc3c(C)ccc(C(=O)[*:1])c3nc-2c(C(=O)[*:2])c(N)c1=O; NMeV = CN[C@H](C(=O)O)C(C)C; Sar = CNCC(=O)O

details: […]; cited from earlier work

| Compound | In vivo DILI |
| --- | --- |
| Oc1ccc2c(c1)[C@@]13CCCC[C@@]1(O)[C@@H](C2)N(CC1CCC1)CC3 [butorphanol] | -VE |
| CO/N=C(\C(=O)N[C@@H]1C(=O)N2C(C(=O)O)=C(CSc3nc(=O)c(=O)[nH]n3C)CS[C@H]12)c1csc(N)n1 [ceftriaxone] | -VE |
| O=C1CCc2cc(OCCCCc3nnnn3C3CCCCC3)ccc2N1 [cilostazol] | -VE |
| CC(O)(P(=O)(O)O)P(=O)(O)O [etidronic acid] | -VE |
| O=S(=O)([O-])[O-].[Fe+2] [ferrous sulfate] | +VE |
| CC1(C)O[C@@H]2C[C@H]3[C@@H]4C[C@H](F)C5=CC(=O)C=C[C@]5(C)[C@H]4[C@@H](O)C[C@]3(C)[C@]2(C(=O)CO)O1 [flunisolide] | -VE |
| Cc1coc2c1CCC(C)C2 (centres unmarked) [menthofuran] | +VE |
| C#C[C@]1(O)CC[C@H]2[C@@H]3CCc4cc(OC)ccc4[C@H]3CC[C@@]21C [mestranol] | -VE |
| C[C@H](N)[C@H](O)c1cccc(O)c1 [metaraminol] | -VE |
| CBr [methyl bromide] | -VE |
| CCCCC1C(=O)N(c2ccccc2)N(c2ccc(O)cc2)C1=O (centres unmarked) [oxyphenbutazone] | +VE |
| COc1ccc(CN(CCN(C)C)c2ccccn2)cc1 [pyrilamine] | -VE |
| COc1ncnc(NS(=O)(=O)c2ccc(N)cc2)c1OC [sulfadoxine] | -VE |
| C[C@]12C=CC(=O)C=C1CC[C@H]1[C@@H]3C[C@@H](O)[C@](O)(C(=O)CO)[C@@]3(C)C[C@H](O)[C@@]12F [triamcinolone] | -VE |
| hemin | -VE |

same assay, conditions: assignment in O'Brien 2006; ref O'Brien 2006; cited from earlier work

| Compound | In vivo DILI |
| --- | --- |
| CC(=O)Nc1ccc2c(c1)Cc1ccccc1-2 [acetamido uorene] | +VE |
| C=CCO [ally alcohol] | +VE |
| c1ccc2c(c1)cc1ccc3cccc4ccc2c1c34 [benzopyrene] | +VE |
| C[N+](C)(C)CC(=O)O.[Cl-] [betaine hcl (acidic)] | +VE |
| Brc1ccccc1 [bromobenzene] | +VE |
| CCCCSCCC(N)C(=O)O (centres unmarked) [buthionine] | +VE |
| ClC(Cl)(Cl)Cl [carbon tetrachloride] | +VE |
| C=C1[C@@H](C)[C@H]2[C@H](Cc3ccccc3)NC(=O)[C@]23OC(=O)/C=C/[C@H](O)CCC[C@@H](C)C/C=C/[C@H]3[C@@H]1O [cytochalasin b] | +VE |
| C=C1[C@@H](C)[C@H]2[C@H](Cc3ccccc3)NC(=O)[C@]23[C@H](OC(C)=O)/C=C/[C@@](C)(O)C(=O)[C@@H](C)C/C=C/[C@H]3[C@@H]1O [cytochalasin d] | +VE |
| CCSCC[C@H](N)C(=O)O [ethionine] | +VE |
| N[C@H]1C(O)O[C@H](CO)[C@@H](O)[C@@H]1O (some centres unmarked) [glucosamine] | +VE |
| C[C@H](CCC(=O)O)C[C@H](C)C[C@H](C)C(=O)/C=C(\O)[C@H](C)C[C@H](C)C/C=C/[C@@H](C)[C@@H](O)[C@@H](C)[C@@H](O)C[C@@H]1CC[C@@](C)([C@H]2CC[C@@](C)([C@@H](C)O)O2)O1 [ionomycin] | +VE |
| O=C(O)CC[N+](=O)[O-] [nitroproprionic acid] | +VE |
| CN(C)N=O [nitrosodimethylamine] | +VE |
| CC(C)[C@@]1(O)[C@@H](OC(=O)c2ccc[nH]2)[C@@]2(O)[C@@]3(C)C[C@]4(O)O[C@@]5([C@H](O)[C@@H](C)CC[C@]35O)[C@@]2(O)[C@@]14C [ryanodine] | +VE |
| [Na+].[OH-] [sodium hydroxide] | +VE |
| C[C@H](CCC(=O)NCCS(=O)(=O)O)[C@H]1CC[C@H]2[C@@H]3[C@H](O)C[C@@H]4C[C@H](O)CC[C@]4(C)[C@H]3C[C@H](O)[C@]12C [taurocholic] | +VE |
| C[C@H](CCC(=O)NCCS(=O)(=O)O)[C@H]1CC[C@H]2[C@@H]3CC[C@@H]4C[C@H](O)CC[C@]4(C)[C@H]3C[C@H](O)[C@]12C [taurodeoycholic] | +VE |
| C[C@H](CCC(=O)NCCS(=O)(=O)O)[C@H]1CC[C@H]2[C@@H]3CC[C@@H]4C[C@H](O)CC[C@]4(C)[C@H]3CC[C@]12C [taurolithocholic] | +VE |
| ClC=C(Cl)Cl [trichloroethylene] | +VE |
| dichloroethylene | +VE |

same assay, conditions: in vivo; cited from earlier work

| Compound | In vivo DILI |
| --- | --- |
| CC1(C)[C@@H](O)CC[C@]2(C)[C@H]3C(=O)C=C4[C@@H]5C[C@@](C)(C(=O)O)CC[C@]5(C)CC[C@@]4(C)[C@]3(C)CC[C@@H]12 [18 beta-glycyrrhetic acid] | -VE |
| Cl.N [ammonium chloride] | -VE |
| C[C@H]1[C@H](NC(=O)/C(=N\OC(C)(C)C(=O)O)c2csc(N)n2)C(=O)N1S(=O)(=O)O [aztreonam] | -VE |
| CCN1CCN(C(=O)N[C@@H](C(=O)N[C@@H]2C(=O)N3C(C(=O)O)=C(CSc4nnnn4C)CS[C@H]23)c2ccc(O)cc2)C(=O)C1=O [cefoperazone] | -VE |
| O=C(N[C@H](CO)[C@H](O)c1ccc([N+](=O)[O-])cc1)C(Cl)Cl [chloramphenicol] | +VE |
| CN(C)[C@@H]1C(O)=C(C(N)=O)C(=O)[C@@]2(O)C(O)=C3C(=O)c4c(O)ccc(Cl)c4[C@@](C)(O)[C@H]3C[C@@H]12 [chlortetracycline] | +VE |
| CC1(COc2ccc(CC3SC(=O)NC3=O)cc2)CCCCC1 (centres unmarked) [ciglitizone] | -VE |
| O=C(O)CC(O)(CC(=O)O)C(=O)O [citrate] | -VE |
| Cc1c2oc3c(C)ccc(C(=O)N[C@@H]4C(=O)N[C@H](C(C)C)C(=O)N5CCC[C@H]5C(=O)N(C)CC(=O)N(C)[C@@H](C(C)C)C(=O)O[C@@H]4C)c3nc-2c(C(=O)N[C@@H]2C(=O)N[C@H](C(C)C)C(=O)N3CCC[C@H]3C(=O)N(C)CC(=O)N(C)[C@@H](C(C)C)C(=O)O[C@@H]2C)c(N)c1=O [dactinomycin] (I: T[dV]P[Sar][NMeV] / II: T[dV]P[Sar][NMeV]; ester I:1-I:C, II:1-II:C; linker I:N-II:N via Actinocin(9to1)) | +VE |
| CC/C(=C(/CC)c1ccc(O)cc1)c1ccc(O)cc1 [diethylsilbesterol] | +VE |
| c1cc[n+]2c(c1)-c1cccc[n+]1CC2 [diquat] | +VE |
| CN(CCOc1ccc(NS(C)(=O)=O)cc1)CCc1ccc(NS(C)(=O)=O)cc1 [dofetilide] | -VE |
| C[C@]12CC[C@@H]3c4ccc(O)cc4CC[C@H]3[C@@H]1C[C@@H](O)[C@@H]2O [estriol] | -VE |
| C[C@]12CC[C@@H]3c4ccc(O)cc4CC[C@H]3[C@@H]1CCC2=O [estrone] | +VE |
| C=CCc1ccc(O)c(OC)c1 [eugenol] | +VE |
| C=O [formaldehyde] | +VE |
| Cl [hydrochloric acid] | +VE |
| COc1ccc2c3c1O[C@H]1C(=O)CC[C@H]4[C@@H](C2)N(C)CC[C@]314 [hydrocodone] | -VE |
| CCNC(=O)[C@@H]1CCCN1C(=O)[C@H](CCCNC(=N)N)NC(=O)[C@H](CC(C)C)NC(=O)[C@@H](CC(C)C)NC(=O)[C@H](Cc1ccc(O)cc1)NC(=O)[C@H](CO)NC(=O)[C@H](Cc1c[nH]c2ccccc12)NC(=O)[C@H](Cc1c[nH]cn1)NC(=O)[C@@H]1CCC(=O)N1 [leuprolide] | -VE |
| Cc1cccc(O)c1 [m-cresol] | +VE |
| O=C(O)CC(=O)O [malonic acid] | +VE |
| CC[C@@]1([C@@H]2O[C@@H]([C@H]3O[C@@](O)(CO)[C@H](C)C[C@@H]3C)C[C@@H]2C)CC[C@H]([C@]2(C)CC[C@]3(C[C@H](O)[C@@H](C)[C@@H]([C@@H](C)[C@@H](OC)[C@H](C)C(=O)O)O3)O2)O1 [monensin] | +VE |
| CC(N)C(O)c1ccccc1 (centres unmarked) [phenylpropanolamine] | -VE |
| C[N+]1(C)[C@@H]2C[C@@H](OC(=O)C(O)(c3cccs3)c3cccs3)C[C@H]1[C@@H]1O[C@@H]12 [tiotropium] | -VE |

same assay, conditions: ref Schadt 2015; cited from earlier work

| Compound | In vivo DILI |
| --- | --- |
| NC(=O)N1c2ccccc2CC(=O)c2ccccc21 [oxcarbazeptin] | +VE |

details: binary in vivo DILI call given beside the severity category; ref Chen 2016; cited from earlier work

| Compound | DILI +VE (5-8), DILI -VE (-4) |
| --- | --- |
| sucralfate | -VE |
| tinzaparin | -VE |

same assay, conditions: human DILI concern category (LTKB DILIrank); ref Chen 2016; cited from earlier work

| Compound | DILI severity category |
| --- | --- |
| sucralfate | vNo-DILI-Concern |
| tinzaparin | Ambiguous DILI-concern |

same assay, conditions: in vivo; cited from earlier work

| Compound | DILI +VE (5-8), DILI -VE (-4) | DILI severity category |
| --- | --- | --- |
| Cl.N [ammonium chloride] | -VE | vNo-DILI-Concern |
| C[C@H]1[C@H](NC(=O)/C(=N\OC(C)(C)C(=O)O)c2csc(N)n2)C(=O)N1S(=O)(=O)O [aztreonam] | -VE | Ambiguous DILI-concern |
| CCN1CCN(C(=O)N[C@@H](C(=O)N[C@@H]2C(=O)N3C(C(=O)O)=C(CSc4nnnn4C)CS[C@H]23)c2ccc(O)cc2)C(=O)C1=O [cefoperazone] | +VE | vLess-DILI-Concern |
| O=C(N[C@H](CO)[C@H](O)c1ccc([N+](=O)[O-])cc1)C(Cl)Cl [chloramphenicol] | -VE | vNo-DILI-Concern |
| Cc1c2oc3c(C)ccc(C(=O)N[C@@H]4C(=O)N[C@H](C(C)C)C(=O)N5CCC[C@H]5C(=O)N(C)CC(=O)N(C)[C@@H](C(C)C)C(=O)O[C@@H]4C)c3nc-2c(C(=O)N[C@@H]2C(=O)N[C@H](C(C)C)C(=O)N3CCC[C@H]3C(=O)N(C)CC(=O)N(C)[C@@H](C(C)C)C(=O)O[C@@H]2C)c(N)c1=O [dactinomycin] (I: T[dV]P[Sar][NMeV] / II: T[dV]P[Sar][NMeV]; ester I:1-I:C, II:1-II:C; linker I:N-II:N via Actinocin(9to1)) | +VE | vMost-DILI-Concern |
| CN(CCOc1ccc(NS(C)(=O)=O)cc1)CCc1ccc(NS(C)(=O)=O)cc1 [dofetilide] | -VE | vNo-DILI-Concern |
| C[C@]12CC[C@@H]3c4ccc(O)cc4CC[C@H]3[C@@H]1CCC2=O [estrone] | -VE | Ambiguous DILI-concern |
| teriparatide | -VE | vNo-DILI-Concern |
| triptorelin pamoate | +VE | vLess-DILI-Concern |
| urokinase | -VE | vNo-DILI-Concern |
| ustekinumab | -VE | vNo-DILI-Concern |
| verteporfin | -VE | Ambiguous DILI-concern |
| vitamin e | -VE | – |

same assay, conditions: ref Chen 2016; cited from earlier work

| Compound | DILI +VE (5-8), DILI -VE (-4) | DILI severity category |
| --- | --- | --- |
| Oc1ccc2c(c1)[C@@]13CCCC[C@@]1(O)[C@@H](C2)N(CC1CCC1)CC3 [butorphanol] | -VE | vNo-DILI-Concern |
| CO/N=C(\C(=O)N[C@@H]1C(=O)N2C(C(=O)O)=C(CSc3nc(=O)c(=O)[nH]n3C)CS[C@H]12)c1csc(N)n1 [ceftriaxone] | +VE | vLess-DILI-Concern |
| O=C1CCc2cc(OCCCCc3nnnn3C3CCCCC3)ccc2N1 [cilostazol] | -VE | Ambiguous DILI-concern |
| CC(O)(P(=O)(O)O)P(=O)(O)O [etidronic acid] | -VE | vNo-DILI-Concern |
